Measured values: article PMC5314759 (2016)

Legend:
[1] = test system: poly[d(A-T)2] (DNA, polymer) AT; assay: UV thermal melting; details: compound concentration not given here; no significant stabilization
[2] = test system: poly[d(G-C)2] (DNA, polymer) GC; assay: UV thermal melting; details: compound concentration not given here; no significant stabilization
[3] = test system: poly[d(A-T)2] (DNA, polymer) AT; assay: ethidium bromide fluorescence displacement; details: apparent; ethidium bromide displaced; Kapp = Kb × 12.6/C50; over 5 h
[4] = test system: poly[d(G-C)2] (DNA, polymer) GC; assay: ethidium bromide fluorescence displacement; details: apparent; ethidium bromide displaced; Kapp = Kb × 12.6/C50; over 5 h

ΔTM [1] [°C] | ΔTM [2] [°C] | Kapp [3] | Kapp [4] | SMILES
−0.17 ± 0.25 | 0.36 ± 0.17 | 3.63 × 10^6 M(bp)^-1 | 3.5 × 10^7 M(bp)^-1 | COC1=CC=C2[C@H]3Cc4ccc(OCc5c(C)c(COc6ccc7c8c6O[C@H]6C(OC)=CC=C9[C@@H](C7)N(C)CC[C@]986)c(C)c(COc6ccc7c8c6O[C@H]6C(OC)=CC=C9[C@@H](C7)N(C)CC[C@]986)c5C)c5c4[C@@]2(CCN3C)[C@H]1O5
0.73 ± 0.18 | 1.72 ± 0.61 | 9.1 × 10^6 M(bp)^-1 | 1.15 × 10^7 M(bp)^-1 | CO[C@H]1C=C[C@H]2[C@H]3Cc4ccc(OCc5c(C)c(COc6ccc7c8c6O[C@H]6[C@@H](OC)C=C[C@H]9[C@@H](C7)N(C)CC[C@@]896)c(C)c(COc6ccc7c8c6O[C@H]6[C@@H](OC)C=C[C@H]9[C@@H](C7)N(C)CC[C@@]896)c5C)c5c4[C@@]2(CCN3C)[C@H]1O5
0.38 ± 0.71 | 2.63 ± 0.58 | 3.03 × 10^5 M(bp)^-1 | 2.69 × 10^5 M(bp)^-1 | Cc1c(COc2ccc3c4c2O[C@H]2[C@@H](O)C=C[C@H]5[C@@H](C3)N(C)CC[C@@]452)c(C)c(COc2ccc3c4c2O[C@H]2[C@@H](O)C=C[C@H]5[C@@H](C3)N(C)CC[C@@]452)c(C)c1COc1ccc2c3c1O[C@H]1[C@@H](O)C=C[C@H]4[C@@H](C2)N(C)CC[C@@]341
